Several values for one entry are separate records, joined by “and”; a condition that tells them apart may be missing. Identical values can stand only once.
How the values were obtained:
Format in all cases: cell-based
[1] = test system: EOC 13.31 microglia cells; experiment: NO release inhibition in LPS/IFNγ stimulated microglia, concurrent treatment, Griess reaction at 24 hours (Example 6); details: for OD Values: Griess; for OD Values / NO release: single replicates; for inhibition at 50 µM: Microglia
Method in brief: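 Confluent EOC 13.31 microglia were given 50 μM compound together with 1 pg/ml LPS plus 1 ng/ml IFNγ, or without stimulation. NO release was quantified spectrophotometrically by Griess reaction 24 hours later.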

[2] = test system: EOC 13.31 microglial cells; experiment: NO release inhibition screen in LPS/IFNγ stimulated microglia, Griess reaction at 48 hours (Example 7)
Method in brief: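 EOC 13.31 microglia, confluent at 24 h, stimulated with 10 μg/ml LPS plus 10 ng/ml IFNγ in presence of 50 uM test compound. Nitric oxide release quantified by Griess reaction at 48 hours.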

[3] = test system: Microglial cells; experiment: Dose response inhibition of NO release from microglia, 0.75-200 μM (Example 8); details: for Avg % Inhibition / μM NO release Avg / % inhibition / OD values (printed under head μM NO release) / μM NO release: 48 hours; for % inhibition / OD values (printed under head μM NO release) / μM NO release: single replicates
Method: This experiment was designed to determine dose response inhibition of NO release from microglia by bis- and tris-dihydroxyaryl compounds when stimulated with LPS/IFNγ. […] This experiment is designed to determine a dose response for various bis- and tris-dihydroxyaryl compounds. Microglial cells were plated into 96 well plates at 1×10^5 cells/ml. […] The doses tested were: 0.75 μM, 1.56 μM, 3.125 μM, 6.25 μM, 12.5 μM, 25 μM, 50 μM, 100 μM and 200 μM. Nitric oxide release was measured after 48 hours using the Griess reaction.

[4] = test system: EOC 13.31 microglia cells; experiment: Inhibition of NO release from microglia following 24 hours pretreatment (Example 10); details: for inhibition at 50 µM: Microglia
Method in brief: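 Confluent EOC 13.31 cells pretreated 24 hours with 50 μM compound (from 10 mM DMSO stock), then stimulated with 10 μg/ml LPS plus 10 ng/ml IFNγ without media change. After a further 48 hours, NO release was measured by Griess Reaction.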

[5] = test system: microglia; experiment: Ranking of NO release inhibition (Example 12); details: ranking table
Description: The bis- and tris-dihydroxyaryl compounds were ranked in order of effectiveness for the inhibition of NO release as set out in Table 8.

[6] = test system: TNF-α release from microglia; experiment: TNF-α release from LPS/IFNγ stimulated microglia, TNF-α ELISA (Example 11); details: 50 uM compound, TNF-α release, 10 ug LPS and 10 ng IFNγ, 24 hours
Method in brief: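 Microglia pretreated 1 h with 50 μM bis-/tris-dihydroxyaryl compound, then stimulated with 10 μg/ml LPS + 10 ng/ml IFNγ for 24 h. Medium sampled, stored at −80°, diluted 1:50 and TNF-α measured by ELISA.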

[7] = Compound + LPS/IFNγ, 50 μM, 24 hours
[8] = Compound Only (without LPS/IFNγ), 50 μM, 24 hours
[9] = 50 uM + 10 μg/ml LPS/10 ng/ml IFNγ, 48 hours
[10] = 50 uM + 10 μg/ml LPS/10 ng/ml IFNγ, 48 hours, single replicates
[11] = 50 uM pretreatment 24 hours, then LPS/IFNγ 48 hours, single replicates

## Oc1ccc(Cc2ccc(O)c(O)c2)cc1O [Compound 3, 3,4,3′,4′-tetrahydroxydiphenylmethane]
[1]; 50 μM, LPS/IFNγ stimulated microglial cells
  inhibition of NO release, in words: very effective inhibitors of NO release
[1]; [7]
  % inhibition of NO release: 48.8%
  NO release, Avg: 9.5299 µM
  OD Values: 0.094 and 0.137 and 0.145
  NO release: 6.0450 µM and 10.8259 µM and 11.7188 µM
[1]; [8]
  NO release, Avg: 1.0417 µM
  OD Values: 0.053 (2×) and 0.054
  NO release: 1.0000 uM (2×) and 1.1250 uM
[1]; Table 2 summary, 50 μM, LPS/IFNγ, 24 hours
  % Inhibition (summary of inhibition of NO release): 48.8%
[2]; [9]
  Avg. % Inhibition: 96.40%
  μM NO release Avg: 1.000 µM
[2]; [10]
  OD values (printed under head μM NO release): 0.064 and 0.055 and 0.062
  μM NO release: 1.393 µM and 0.429 µM and 1.179 µM
[2]; 50 uM + 10 μg/ml LPS/10 ng/ml IFNγ, 48 hours, single replicates, 50 µM
  % inhibition: 98.46% and 95.75% and 94.98%
[2]; 50 uM, LPS/IFNγ stimulated microglia
  inhibition of NO release, in words: effective inhibitors of NO release
[3]; dose 0.75 μM
  Avg % Inhibition: −8.947%
  μM NO release Avg: 21.563 µM
  % inhibition: −3.42% and −6.58% and −16.84%
  OD values (printed under head μM NO release): 0.2 and 0.183 and 0.187
  μM NO release: 23.125 µM and 20.469 µM and 21.094 µM
[3]; dose 1.56 μM
  μM NO release Avg: 19.792 µM
  % inhibition: 3.68% (2×) and −7.37%
  OD values (printed under head μM NO release): 0.188 and 0.174 (2×)
  μM NO release: 21.250 μM and 19.063 μM (2×)
[3]; dose 3.125 μM
  Avg % Inhibition: 0.789%
  μM NO release Avg: 19.635 µM
  % inhibition: 2.89% and 5.26% and −5.79%
  OD values (printed under head μM NO release): 0.186 and 0.175 and 0.172
  μM NO release: 20.938 µM and 19.219 µM and 18.750 µM
[3]; dose 6.25 μM
  Avg % Inhibition: 7.368%
  μM NO release Avg: 18.333 µM
  % inhibition: 10.79% and 10.00% and 1.32%
  OD values (printed under head μM NO release): 0.177 and 0.165 and 0.166
  μM NO release: 19.531 µM and 17.656 µM and 17.813 µM
[3]; dose 12.5 μM
  Avg % Inhibition: 6.579%
  μM NO release Avg: 18.490 µM
  % inhibition: 10.00% and 2.89% and 6.84%
  OD values (printed under head μM NO release): 0.17 and 0.166 and 0.175
  μM NO release: 18.438 µM and 17.813 µM and 19.219 µM
[3]; dose 25 μM
  Avg % Inhibition: 14.737%
  μM NO release Avg: 16.875 µM
  % inhibition: 22.63% and 10.00% and 11.58%
  OD values (printed under head μM NO release): 0.164 and 0.15 and 0.166
  μM NO release: 17.500 µM and 15.313 µM and 17.813 µM
[3]; dose 50 μM
  Avg % Inhibition: 47.368%
  μM NO release Avg: 10.417 µM
  % inhibition: 48.68% and 46.32% and 47.11%
  OD values (printed under head μM NO release): 0.119 and 0.117 and 0.12
  μM NO release: 10.469 µM and 10.156 µM and 10.625 µM
[3]; dose 100 μM
  Avg % Inhibition: 62.368%
  μM NO release Avg: 7.448 µM
  % inhibition: 64.47% and 60.53% and 62.11%
  OD values (printed under head μM NO release): 0.1 and 0.097 and 0.102
  μM NO release: 7.500 µM and 7.031 µM and 7.813 µM
[3]; dose 200 μM
  Avg % Inhibition: 67% and 67.105%
  μM NO release Avg: 6.510 µM
  % inhibition: 68.42% and 66.84% and 66.05%
  OD values (printed under head μM NO release): 0.095 and 0.092 and 0.094
  μM NO release: 6.719 µM and 6.250 µM and 6.563 µM
[3]; dose response 0.75-200 μM
  inhibition of NO release, in words: effective inhibitors of NO release
[4]; 50 uM pretreatment 24 hours, then LPS/IFNγ 48 hours
  Avg % Inhibition: 79.87%
[4]; [11]
  % inhibition: 86.74% and 69.63% and 83.24%
  OD values (printed under head μM NO release): 0.206 and 0.163 and 0.153
  μM NO release: 6.000 µM and 3.313 µM and 2.621 µM
[5]
  % Inhibition at 50 μM (NO release): 30%

## O=C(NCc1ccc(O)c(O)c1)c1ccc(O)c(O)c1 [Compound 52, 3,4-dihydroxybenzoic acid 3,4-dihydroxybenzylamide]
[1]; [7]
  NO release, Avg: 16.2840 µM
[1]; [8]
  NO release, Avg: -0.0417 µM
[1]; Compound + LPS/IFNγ, 24 hours, read-out: % inhibition of NO release
  inhibition at 50 µM: 12.6%
[1]; Table 2 summary, LPS/IFNγ, 24 hours, read-out: % Inhibition (summary of inhibition of NO release)
  inhibition at 50 µM: 12.6%
[4]; [11]
  % inhibition: 80.39% and 81.34%
[4]; 50 uM pretreatment 24 hours, then LPS/IFNγ 48 hours, read-out: Avg % Inhibition
  inhibition at 50 µM: 80%
[4]; 50 uM pretreatment 24 hours, then LPS/IFNγ 48 hours, single replicates, read-out: % inhibition
  inhibition at 50 µM: 78.2%
[4]; 50 μM pretreatment, read-out: inhibition of NO release following pretreatment
  inhibition at 50 µM: > 75%
[6]; individual replicates, 50 µM
  % inhibition: −12.27% and −26.58% and −30.69%
[6]; Microglia, 24 h, read-out: Avg % Inhibition
  inhibition at 50 µM: -23.2%
[5]; Microglia
  inhibition at 50 µM: 13%
